{"source": "ChEMBL document CHEMBL1201862", "about": "“PubChem BioAssay data set” (2004)", "experiment_in_all_cases": "NCI-60 cell line screen, 48 h", "key": {"UACC-257": {"test_system": "UACC-257"}, "OVCAR-8": {"test_system": "OVCAR-8"}, "HCT-116": {"test_system": "HCT-116"}, "MOLT-4": {"test_system": "MOLT-4"}, "K562": {"test_system": "K562"}, "NCI-H226": {"test_system": "NCI-H226"}, "LOX IMVI": {"test_system": "LOX IMVI"}, "A498": {"test_system": "A498"}, "SK-OV-3": {"test_system": "SK-OV-3"}, "SR": {"test_system": "SR"}, "DU-145": {"test_system": "DU-145"}, "SF-295": {"test_system": "SF-295"}, "MDA-MB-231": {"test_system": "MDA-MB-231"}, "IGROV-1": {"test_system": "IGROV-1"}, "SNB-75": {"test_system": "SNB-75"}, "SW-620": {"test_system": "SW-620"}, "MCF7": {"test_system": "MCF7"}, "T47D": {"test_system": "T47D"}, "HOP-62": {"test_system": "HOP-62"}, "CCRF-CEM": {"test_system": "CCRF-CEM"}, "HT-29": {"test_system": "HT-29"}, "EKVX": {"test_system": "EKVX"}, "PC-3": {"test_system": "PC-3"}, "NCI-H460": {"test_system": "NCI-H460"}, "SF-268": {"test_system": "SF-268"}, "OVCAR-5": {"test_system": "OVCAR-5"}, "SK-MEL-2": {"test_system": "SK-MEL-2"}, "SK-MEL-28": {"test_system": "SK-MEL-28"}, "ACHN": {"test_system": "ACHN"}, "M14": {"test_system": "M14"}, "RPMI-8226": {"test_system": "RPMI-8226"}, "Hs-578T": {"test_system": "Hs-578T"}, "HCT-15": {"test_system": "HCT-15"}, "786-0": {"test_system": "786-0"}, "HOP-92": {"test_system": "HOP-92"}, "UO-31": {"test_system": "UO-31"}, "NCI-H522": {"test_system": "NCI-H522"}, "SK-MEL-5": {"test_system": "SK-MEL-5"}, "NCI/ADR-RES": {"test_system": "NCI/ADR-RES"}, "TK-10": {"test_system": "TK-10"}, "NCI-H23": {"test_system": "NCI-H23"}, "U-251": {"test_system": "U-251"}, "SF-539": {"test_system": "SF-539"}, "HCC 2998": {"test_system": "HCC 2998"}, "HL-60": {"test_system": "HL-60"}, "RXF 393": {"test_system": "RXF 393"}, "OVCAR-3": {"test_system": "OVCAR-3"}}, "note": "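1) Cells in 96-well plates. 2) Compound, 48 h, 5 concentrations. 3) Linear interpolation between surrounding doses. 4) Unreached endpoint = highest concentration. At the GI50, growth is halved.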 Activity calls are given as the source filed them. Rule as the data show it: active = GI50 up to about 1.1 µM and inactive = higher.", "data": [{"smiles": "CCOc1cc(/C=C2/C(C)=NN(c3cccc(Cl)c3)/C2=N/c2nc3ccccc3s2)ccc1O", "values": [{"measurement": "GI50", "setting": "UACC-257", "value": "23.7 µM (inactive)"}, {"measurement": "GI50", "setting": "OVCAR-8", "value": "30.4 µM (inactive)"}, {"measurement": "GI50", "setting": "HCT-116", "value": "24.2 µM (inactive)"}, {"measurement": "GI50", "setting": "MOLT-4", "value": "32.7 µM (inactive)"}, {"measurement": "GI50", "setting": "K562", "value": "40.4 µM (inactive)"}, {"measurement": "GI50", "setting": "NCI-H226", "value": "23.7 µM (inactive)"}, {"measurement": "GI50", "setting": "LOX IMVI", "value": "35.9 µM (inactive)"}, {"measurement": "GI50", "setting": "A498", "value": "24.2 µM (inactive)"}, {"measurement": "GI50", "setting": "SK-OV-3", "value": "23 µM (inactive)"}, {"measurement": "GI50", "setting": "SR", "value": "27.9 µM (inactive)"}, {"measurement": "GI50", "setting": "DU-145", "value": "46.1 µM (inactive)"}, {"measurement": "GI50", "setting": "SF-295", "value": "24.8 µM (inactive)"}, {"measurement": "GI50", "setting": "MDA-MB-231", "value": "24.7 µM (inactive)"}, {"measurement": "GI50", "setting": "IGROV-1", "value": "29.6 µM (inactive)"}, {"measurement": "GI50", "setting": "SNB-75", "value": "34.8 µM (inactive)"}, {"measurement": "GI50", "setting": "SW-620", "value": "34.6 µM (inactive)"}, {"measurement": "GI50", "setting": "MCF7", "value": "28.5 µM (inactive)"}, {"measurement": "GI50", "setting": "T47D", "value": "38.6 µM (inactive)"}, {"measurement": "GI50", "setting": "HOP-62", "value": "23.2 µM (inactive)"}, {"measurement": "GI50", "setting": "CCRF-CEM", "value": "33.2 µM (inactive)"}, {"measurement": "GI50", "setting": "HT-29", "value": "41.2 µM (inactive)"}, {"measurement": "GI50", "setting": "EKVX", "value": "38.4 µM (inactive)"}, {"measurement": "GI50", "setting": "PC-3", "value": "19.8 µM (inactive)"}, {"measurement": "GI50", "setting": "NCI-H460", "value": "25.5 µM (inactive)"}, {"measurement": "GI50", "setting": "SF-268", "value": "28.2 µM (inactive)"}, {"measurement": "GI50", "setting": "OVCAR-5", "value": "98.9 µM (inactive)"}, {"measurement": "GI50", "setting": "SK-MEL-2", "value": "21.1 µM (inactive)"}, {"measurement": "GI50", "setting": "SK-MEL-28", "value": "34.7 µM (inactive)"}, {"measurement": "GI50", "setting": "ACHN", "value": "24.3 µM (inactive)"}, {"measurement": "GI50", "setting": "M14", "value": "24.9 µM (inactive)"}, {"measurement": "GI50", "setting": "RPMI-8226", "value": "38.3 µM (inactive)"}, {"measurement": "GI50", "setting": "Hs-578T", "value": "29.7 µM (inactive)"}, {"measurement": "GI50", "setting": "HCT-15", "value": 21.8, "unit": "µM"}, {"measurement": "GI50", "setting": "786-0", "value": "32.1 µM (inactive)"}, {"measurement": "GI50", "setting": "HOP-92", "value": "23.2 µM (inactive)"}, {"measurement": "GI50", "setting": "UO-31", "value": "19.4 µM (inactive)"}, {"measurement": "GI50", "setting": "NCI-H522", "value": "21.9 µM (inactive)"}, {"measurement": "GI50", "setting": "SK-MEL-5", "value": "17.8 µM (inactive)"}, {"measurement": "GI50", "setting": "NCI/ADR-RES", "value": "20.5 µM (inactive)"}, {"measurement": "GI50", "setting": "TK-10", "value": "36.9 µM (inactive)"}, {"measurement": "GI50", "setting": "NCI-H23", "value": "19.4 µM (inactive)"}, {"measurement": "GI50", "setting": "U-251", "value": "20.3 µM (inactive)"}, {"measurement": "GI50", "setting": "SF-539", "value": "24.5 µM (inactive)"}, {"measurement": "GI50", "setting": "HCC 2998", "value": "14.3 µM (inactive)"}, {"measurement": "GI50", "setting": "HL-60", "value": "3.3 µM (inactive)"}, {"measurement": "GI50", "setting": "RXF 393", "value": "38.6 µM (inactive)"}, {"measurement": "GI50", "setting": "OVCAR-3", "value": "20 µM (inactive)"}]}]}
